Measurements from patent publication US20250304587A1, “WEE1 INHIBITOR, PREPARATION THEREFOR AND USE THEREOF” (JIANGSU TASLY DIYI PHARMACEUTICAL CO., LTD., priority 2022, published 2025).
Where two headings read alike, the source gives them in different places.

Key:
plasma protein = assay: Plasma protein binding (equilibrium dialysis), human; type: in vitro ADME; details: 1 μM, 5 h dialysis
[1] = rat, in vivo; for Death Numbers / Death Rate: SD, 14 days
[2] = Pharmacokinetics on single dose in mice (iv and po); type: in vivo, male ICR mice
Text: The present experiment aimed to study the pharmacokinetics in the plasma of male ICR mice after the administration. The present experiment aimed to obtain the pharmacokinetic profile of the subject compounds in ICR mice (both intravenous and oral) [table] • Species: SPF grade male ICR mice • Body weight/weekly age: about 30 g • Amount: 6 • Experimental animal source: Charles River • Intravenous solvents: 5% DMSO—10% Solutol-85% HPBCD (20%, WN) • “Gavage solvent/dosage form: 5% DMSO—10% Solutol-85% HPBCD (20%, WN)” • Intravenous: 1 mg/kg in a volume of 5 mL/kg • Gavage: 10 mg/kg in a volume of 10 mL/kg • Ultrasound for 5 min before administration • Intravenous: 0.2 mg/mL • Gavage: 1 mg/mL • Fast overnight before administration and feed four hours after administration. […] The blood samples were stored in a refrigerator at or below −20 C for LC-MS/MS analysis. The samples were detected for drug concentration at each time point by LC-MS/MS. Pharmacokinetic parameters terminal elimination half-life (t½), area under the curve (AUC), apparent volume of distribution (Vd), clearance (CL), mean residence time (MRT), and Cmax were calculated using the non-compailinental model of Phoenix WinNonlin 5.2. Bioavailability (F %) was directly from serum concentration results. Mean standard deviation (X±SD) was used for blood concentration and pharmacokinetic parameters, etc. Specific testing and analytical methods were specified in the form of protocol revisions.

[3] = Metabolic stability in liver microsomes, mouse; type: in vitro ADME
Description: Test Example 3: Evaluation of the Metabolic Stability of Liver Microsomes (Mouse and Human) In Vitro Microsomes were taken out from the −80° C. refrigerator, rapidly melted in a 37° C. water bath and placed on ice until ready to use. The test article was diluted with DMSO to prepare a 10 mM stock solution, and then diluted with acetonitrile to a 0.5 mM secondary stock solution. […] NADPH was diluted with Buffer C to a working solution of 6 mM for the starter solution. An acetonitrile solution containing an internal standard was prepared as the precipitant, and Verapamil-HCl was chosen as the internal standard at a concentration of 4 ng/ml. […] A separate plate with pointed bottom wells, noted as a precipitation plate, was added with 135 μL precipitant per well; 0 h samples were transferred to the plate after 10 min incubation and 15 μL of starter solution was added; the plate was placed on ice before centrifugation. The diluted starter solution was added in sufficient quantity to the dispensing plate to facilitate the multichannel pipette aspiration operation. The reaction was carried out on a warm incubation shaker and 15 μL of starter solution/sample is added to the plate using a multichannel pipette. The reaction was mixed with a slight shake to initiate the reaction, which was accurately timed and recorded using a timer; After the reaction time had elapsed, all the solution in the plate was aspirated using the multichannel pipette and added to the precipitation plate to terminate the reaction at that point in time. After all reactions had been terminated, the plates were shaken for ten minutes on a plate shaker at 600 rpm to precipitate the protein. The plate was centrifuged at 4° C. for 15 minutes at maximum rpm. 80 μL of supernatant was taken, 320 μL of pure water was added and mixed for LC-MS analysis.

hERG potassium channel = hERG potassium channel (Homo sapiens (Human), UniProt Q12809); assay: hERG potassium channel inhibition, patch clamp in CHO hERG cells
Description: The cell line used for the patch clamp assay was a 10th generation CHO cell overexpressing hERG potassium channel cDNA. CHO hERG cells were cultured in Petri dishes or flasks at 37° C. in a 5% CO2 incubator. Cells were dropped onto circular slides 24-48 hours prior to electrophysiological experiments and cultured in cell culture medium and used for experiments after the cells had been adhered.
Cell culture medium (purchased from Invitrogen) Composition: • Ham's F12 medium • 10% (v/v) heat inactivated FBS • 100 μg/ml Hygromycin B (thaumatin) • 100 μg/ml Geneticin (Genomycin, G418)
Compound powders are dissolved in the extracellular solution and are subjected to a routine 5 to 10 minute sonication and shaking to ensure complete dissolution of the compound.
The final concentrations of compounds used for electrophysiological assays were 5, 20 μM and the final concentration of DMSO was 0.1%.
Cell membrane currents were recorded using a HEKA EPC-10 USB patch-clamp amplifier (HEKA Elektronik, Germany). • 1) A coverslip with a large number of uniformly growing individual CHO hERG cells on its surface was taken. Place in a continuous recording cell on an inverted microscope, perfused with extracellular fluid (approximately 1 ml per minute) and recorded continuously, waiting for the current to stabilize. • 2) Record HERG channel currents for individual cells using standard whole cell recording mode. The membrane voltage is first clamped at −80 mV and the cell is given a +20 mV stimulus for 5 s to activate the hERG potassium channel, then repolarized to −50 mV for 5 s to generate an outward tail current, which is continuously perfused until the current is stable, at which point the peak tail current is the control current value. • 3) The extracellular solution containing the drug to be tested was then perfused and recorded until the inhibitory effect of the drug on the hERG current reached a steady state, at which point the peak tail current was the post-drug current value. • 4) The cells are again perfused with the extracellular solution until the hERG current returns to or approaches the level prior to the addition of the drug, then the perfusion can be continued to test other concentrations or drugs. One or more compound or drug concentrations may be tested on each cell. • 5) Cisapride (C4740-10 mg, Sigma) is used as a positive control in the experiment to ensure that the cells used respond properly.

CYP2C9 = CYP2C9 (Homo sapiens (Human), UniProt P11712); assay: Cytochrome P450 inhibition (fluorescence), CYP2C9; type: in vitro ADME; details: read-out: IC50 CYP2C9
Description: (§1) Enzymatic experiments were performed to quantify the inhibition of CYP450 enzyme activity of each isoform of CYP450 by small molecule inhibitors through fluorescence generated by the oxidation of the substrate by cytochrome P450. […] The Solution B composition used for the experiment was: 40 U/mL G6PDH (Sigma-aldrich, Cat #G6378). The substrate mix was 0.05× Solution A, 0.01× Solution B, 50 mM Potassium Phosphate, 0.01 mM BOMCC/0.01 mM EOMCC/0.001 mM DBOMF. […] The data were analyzed and processed using GraphPad Prism 6 software to obtain IC50 values.

[4] = Plasma protein binding (equilibrium dialysis), human; type: in vitro ADME; details: 5 h dialysis, read-out: Plasma Protein binding (PPB) Human (converted)
HT-29 cells = assay: Cell Titer-Glo anti-proliferation, HT-29 cells; type: cell-based, human; details: Homo sapiens, HT-29, 72 h, 3 days, read-out: Anti-proliferative activity HT-29 (IC50 class)
Method in brief: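 Each line was exposed to graded compound concentrations for 3 days at 37 °C, 5% CO2, with final DMSO at 0.2%. Viability was measured by Cell Titer-Glo luminescence, with untreated cells as the maximum and medium as the minimum signal. IC50 came from a variable-slope log(inhibitor)-response fit.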

CYP2D6 = CYP2D6 (Homo sapiens (Human), UniProt P10635); assay: Cytochrome P450 inhibition (fluorescence), CYP2D6; type: in vitro ADME; details: read-out: IC50 CYP2D6
Description: as §1

[5] = male, mouse, plasma, ICR mice, iv 1 mg/kg
[6] = male, mouse, plasma, ICR mice, po 10 mg/kg

hERG potassium channel, sequence (Q12809 whole entry): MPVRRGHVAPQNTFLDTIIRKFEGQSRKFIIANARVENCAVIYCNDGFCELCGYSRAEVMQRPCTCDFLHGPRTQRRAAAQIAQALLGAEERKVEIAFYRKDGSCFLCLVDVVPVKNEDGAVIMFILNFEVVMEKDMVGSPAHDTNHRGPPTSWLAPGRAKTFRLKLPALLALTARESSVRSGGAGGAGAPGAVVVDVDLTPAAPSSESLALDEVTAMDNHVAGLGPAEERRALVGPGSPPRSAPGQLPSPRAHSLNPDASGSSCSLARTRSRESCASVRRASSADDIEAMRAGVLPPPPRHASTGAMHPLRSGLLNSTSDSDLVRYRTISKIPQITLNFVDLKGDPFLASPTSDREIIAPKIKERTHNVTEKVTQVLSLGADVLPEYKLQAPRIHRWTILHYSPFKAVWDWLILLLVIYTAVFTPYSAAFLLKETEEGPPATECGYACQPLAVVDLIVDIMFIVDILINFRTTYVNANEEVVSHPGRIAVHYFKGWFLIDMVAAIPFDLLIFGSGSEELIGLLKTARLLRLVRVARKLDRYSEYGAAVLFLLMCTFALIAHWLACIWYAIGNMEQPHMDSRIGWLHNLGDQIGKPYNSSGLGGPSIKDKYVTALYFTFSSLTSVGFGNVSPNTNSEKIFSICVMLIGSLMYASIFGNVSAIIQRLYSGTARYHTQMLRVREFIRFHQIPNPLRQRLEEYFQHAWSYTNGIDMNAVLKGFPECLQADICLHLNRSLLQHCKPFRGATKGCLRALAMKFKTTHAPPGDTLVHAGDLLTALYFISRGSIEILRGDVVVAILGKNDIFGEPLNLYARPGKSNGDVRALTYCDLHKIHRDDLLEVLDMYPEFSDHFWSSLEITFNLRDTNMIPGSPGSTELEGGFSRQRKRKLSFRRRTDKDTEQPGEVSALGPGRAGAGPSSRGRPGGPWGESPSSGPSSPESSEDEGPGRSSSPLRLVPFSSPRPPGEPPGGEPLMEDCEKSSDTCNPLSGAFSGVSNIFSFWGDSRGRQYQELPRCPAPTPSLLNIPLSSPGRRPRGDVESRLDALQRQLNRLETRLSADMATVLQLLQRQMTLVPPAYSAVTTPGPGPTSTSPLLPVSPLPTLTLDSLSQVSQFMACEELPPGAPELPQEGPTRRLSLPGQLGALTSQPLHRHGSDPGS
CYP2D6, sequence (P10635 whole entry): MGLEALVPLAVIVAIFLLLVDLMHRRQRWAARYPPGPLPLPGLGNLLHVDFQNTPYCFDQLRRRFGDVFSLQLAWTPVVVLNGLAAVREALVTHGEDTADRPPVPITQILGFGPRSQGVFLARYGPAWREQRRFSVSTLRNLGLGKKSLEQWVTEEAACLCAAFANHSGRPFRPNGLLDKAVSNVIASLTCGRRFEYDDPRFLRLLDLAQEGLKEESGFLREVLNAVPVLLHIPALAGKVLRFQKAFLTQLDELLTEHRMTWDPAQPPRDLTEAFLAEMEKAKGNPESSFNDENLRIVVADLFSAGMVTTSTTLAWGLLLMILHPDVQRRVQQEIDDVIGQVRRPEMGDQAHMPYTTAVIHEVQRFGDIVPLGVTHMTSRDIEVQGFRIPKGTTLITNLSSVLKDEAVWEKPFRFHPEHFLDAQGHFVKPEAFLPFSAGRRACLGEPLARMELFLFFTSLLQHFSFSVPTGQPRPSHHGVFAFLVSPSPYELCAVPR
CYP2C9, sequence (P11712 whole entry, canonical isoform): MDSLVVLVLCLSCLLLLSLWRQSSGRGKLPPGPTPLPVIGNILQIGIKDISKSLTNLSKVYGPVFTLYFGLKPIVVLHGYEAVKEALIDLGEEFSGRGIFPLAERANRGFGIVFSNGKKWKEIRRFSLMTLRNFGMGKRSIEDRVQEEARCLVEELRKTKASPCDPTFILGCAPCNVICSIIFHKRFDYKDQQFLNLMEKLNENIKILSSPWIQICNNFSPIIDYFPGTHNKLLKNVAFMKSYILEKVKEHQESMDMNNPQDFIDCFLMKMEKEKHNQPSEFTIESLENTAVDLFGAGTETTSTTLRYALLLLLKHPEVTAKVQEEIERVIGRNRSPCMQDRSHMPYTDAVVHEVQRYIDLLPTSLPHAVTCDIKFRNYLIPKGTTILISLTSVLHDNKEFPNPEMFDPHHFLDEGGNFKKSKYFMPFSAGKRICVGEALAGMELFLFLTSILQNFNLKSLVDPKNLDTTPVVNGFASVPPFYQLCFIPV

## [2H][C@]1(O)c2nc(-n3c4nc(Nc5ccc(N6CCC7(CCN(C)CC7)CC6)cc5)ncc4c(=O)n3CC=C)ccc2CCC12CC2 [Compound 37b]
Plasma protein
  Plasma Protein binding (PPB) Human: 77.58%
[1]
  Maximum tolerated dose (in words): higher than that of the control compound AZD1775
[2]; ICR mice, iv 1 mg/kg
  AUClast: 558 ng·h/mL
  C0: 186 ng/mL
  Cl: 1.58 L/h/kg
  T1/2: 2.99 h
[2]; ICR mice, po 10 mg/kg
  AUClast: 1607 ng·h/mL
  Cl: 4.44 L/h/kg
  Cmax: 307 ng/mL
  F: 29%
  Tmax: 160 min
[2]; mice, compared with AZD1775
  Pharmacokinetic properties (in words): better pharmacokinetic properties than the control compound AZD1775
[3]
  T1/2 liver microsomes Mouse: 37.8 min
hERG potassium channel; test concentration 5 μM
  hERG Inhibition: 18.00 ± 4.80%
hERG potassium channel; test concentration 20 μM
  hERG Inhibition: 34.70 ± 4.40%

## C=CCn1c(=O)c2cnc(Nc3ccc(N4CCN(C)CC4)cc3)nc2n1-c1cccc(C(C)(C)O)n1 [AZD1775, reference compound]
CYP2C9
  IC50: > 10 µM
[4]
  fraction unbound at 5 h, 1 µM: 0.336
HT-29 cells
  IC50: 100 to 1000 nM
[1]; female, 100 mg/kg
  Death Numbers: 0
  Death Rate: 0%
[1]; female, 200 mg/kg
  Death Numbers: 0
  Death Rate: 0%
[1]; female, 300 mg/kg
  Death Numbers: 2
  Death Rate: 67%
[1]; male, 100 mg/kg
  Death Numbers: 0
  Death Rate: 0%
[1]; male, 200 mg/kg
  Death Numbers: 0
  Death Rate: 0%
[1]; male, 300 mg/kg
  Death Numbers: 0
  Death Rate: 0%
[2]; ICR mice, po 10 mg/kg
  Cl: 26.76 L/h/kg
  F: 32%
[2]; [5]
  AUC(0-t): 116 ng·h/mL
  clearance: 134 mL/min/kg
  half-life: 30 min
[2]; male, mouse, plasma, ICR mice, iv 1 mg/kg, read-out: C0
  C0: 250 ng/mL
[2]; [6]
  AUC(0-t): 396 ng·h/mL
  half-life: 52.2 min
[2]; male, mouse, plasma, ICR mice, po 10 mg/kg, read-out: Cmax
  Cmax: 398 ng/mL
[2]; male, mouse, plasma, ICR mice, po 10 mg/kg, read-out: Tmax
  Tmax: 25.2 min
[3]; read-out: T1/2 liver microsomes Mouse
  half-life at 1 µM: 26 min
CYP2D6
  IC50: > 10 µM
